# Where two headings read alike, the source gives them in different places.
# Assays:
# [1] = Diffusion coefficients and equivalent size estimated from molecular weight; type: physicochemical; settings: for Diff Coeff: Table 2, 37 C, estimated from molecular weight; for Equiv volume / equivalent diameter: assumes unit density, per molecule; for D/(Ran D): diffusion relative to Ranibizumab
# Text: If the reservoir solution is aqueous or has a viscosity similar to water, the value for the diffusion coefficient of the therapeutic agent (TA) in water at the temperature of interest may be used. […] (Molokhia et al, Exp Eye Res 2008): DTA,37C=DBSA,20C(η20C/η37C)(MWBSA/MWTA)^1/3 where MW refers to the molecular weight of either BSA or the test compound and η is the viscosity of water.
# The diffusion constant of the stabilizer can be determined, for example, based on an estimate of hydrodynamic radius corresponding to the cube root of the molecular weight as described herein.
# The diffusion coefficients of Table 2 can be determined based on weight for molecular weights up to about 2.5 M Daltons, and based on size above about 2.5 M Daltons.
# [2] = Diffusion model of release from the therapeutic device reservoir through the porous structure; settings: for relative half-life in device 100: % of ranibizumab
# Text: The release rate of therapeutic agent 110 through a porous body, such as a sintered porous metal structure or a porous glass structure, may be described by diffusion of the therapeutic agent 110 within the porous structure 150 with the channel parameter, and with an effective diffusion coefficient equal to the diffusion coefficient of the therapeutic agent 110 in the liquid that fills the reservoir multiplied by the Porosity and a Channel Parameter of the porous body: Release Rate=(DP/F)A(cR−cV)/L, where: cR=Concentration in reservoir cV=Concentration outside of the reservoir or in the vitreous D=Diffusion coefficient of the therapeutic agent in the reservoir solution P=Porosity of porous structure F=Channel parameter that may correspond to a tortuosity parameter of channels of porous structure A=Area of porous structure L=Thickness (length) of porous structure Cumulative Release=1−cR/cR0=1−exp((−DPA/FLVR)t), where t=time, Vr=reservoir volume
# A model can be derived to describe the release rate as a function of time by relating the change of concentration in the reservoir 140 to the release rate described above. This model assumes a solution of therapeutic agent 110 where the concentration in the reservoir 140 is uniform. In addition, the concentration in the receiving fluid or vitreous is considered negligible (cV=0). Solving the differential equation and rearrangement yields the following equations describing the concentration in the reservoir as a function of time, t, and volume of the reservoir, VR, for release of a therapeutic agent 110 from a solution in a reservoir though a porous structure 150. cR=cR0 exp((−DPA/FLVR)t) and Cumulative Release=1−cR/cR0
# The molecular weight of the stabilizer can be provided in 1k Dalton increments from about 1k Dalton to about 200k Daltons and provide in a Table having about 200 rows similar to Table 2. The parameters of Table 2 determined such as the half-life in the device, the equivalent volume, the equivalent diameter, and % in the device at the half-life of the therapeutic agent 110. The table may comprise a row for each molecular weight in 1k Dalton increments, and the % of stabilizer in the device compared with the therapeutic agent 110. The table may include columns for two half-lives of the therapeutic agent, three half-lives of the therapeutic agent, four half-lives of the therapeutic agent, and the corresponding percentage of stabilizer remaining in the device.
# FIG. 104 and Table 3 show concentrations of therapeutic agent, stabilizer and the ratio of stabilizer to therapeutic agent in accordance with an exemplary embodiment, for example. The concentrations and rations can be determined by a person of ordinary skill in the art based on the teachings described herein. […] Additional concentrations of the therapeutic agent can be used, for example greater amounts of therapeutic agent.
# [3] = test system: analytes detected in pathological aqueous samples; assay: Analytes in pathological aqueous samples pre-treatment and after intravitreal bevacizumab injection (Table 1); type: in vivo
# Text: The markers can be used to determine a course of treatment for the patient, and may be combined in many ways with the therapeutic agent as described herein. In many embodiments, the marker comprises a molecule that is a component of the eye which can diffuse through the porous structure into the reservoir structure. In many embodiments, the marker comprises a large molecule that can diffuse through the porous structure of the implanted device into the reservoir chamber. The therapeutic agent may comprise a large molecule or a small molecule that can diffuse through the porous structure, or combinations of large and small molecules. Work in relation to embodiments indicate that marker molecules having a lower molecular weight may accumulate in the implanted device more rapidly than larger molecular weight marker molecules, and that marker molecules having a molecular weight of no more than about 500 kDa can be used in many embodiments. In many embodiments the molecular weight can be smaller than 500 kDa, for example 100 kDa or less, so that the accumulation rate is increased. The molecular weight values of Table 1 can be combined in many ways to provide ranges of molecular weights of the measured marker. Alternatively or in combination, a plurality of markers of different molecular weight can be used to diagnose and treat the patient. Examples of markers and amounts similar to Table 1 can be used and are shown in Molecular Vision (Mol. Vis. 2010; 16: 2175-2184, Published online 2010 Oct. 27) available on the world wide web (at the address http://www.ncbi.nlm.nih.gov/pmc/articles/PMC2994336/table/t1/)
# A ratio of pre-treatment mean concentration to post-treatment mean concentration is shown for the markers of Table 1. This ratio can be used to determine markers suitable to indicate efficacy of treatment and markers suitable for use as housekeeping genes. The markers having a ratio […] about 1.2, for example, can be suitable for use as housekeeping markers. Markers having a ratio above about 1.2 may be suitable for use as efficacy markers. In many embodiments, the one or more markers from the therapeutic device correspond to a pre/post ratio above of about 1.5, for example. Alternatively or in combination, the pre/post ratio can be less than 0.8, for example, and the marker risk may correspond to under-expression of protective factors, for example. The marker profile to diagnose the patient from a sample of the implanted device may comprise a plurality of up-regulation of pathogenic factor markers corresponding to a ratio above about 1.2 and a plurality of under-expression of protective factor markers corresponding to a ratio below about 0.8, for example.
# [4] = vitreous, monkey; cited from earlier work
# [5] = vitreous, rabbit; cited from earlier work
# [6] = vitreous, human eye; cited from earlier work
# [7] = aqueous samples after intravitreal bevacizumab injection
# [8] = aqueous samples, intravitreal bevacizumab injection
molecule,measurement,setting,value
N[C@@H](Cc1c[nH]cn1)C(=O)O [Histidine],Diff Coeff,[1],6.8E−06 cm^2/s
same,Equiv volume,[1],0.3 nm^3
same,D/(Ran D),[1],6.75
same,Device Half-life relative to Ranibiz.,[2],0.15
OC[C@H]1O[C@H](O[C@H]2O[C@H](CO)[C@@H](O)[C@H](O)[C@H]2O)[C@H](O)[C@@H](O)[C@@H]1O [Trehalose],Diff Coeff,[1],5.0E−06 cm^2/s
same,Diff Coeff,[1]; listed as trehalose,~5.0E-6 cm^2/s
same,Equiv volume,[1],0.6 nm^3
same,equivalent diameter,[1],~1.1 nm
same,D/(Ran D),[1],5.03
same,Device Half-life relative to Ranibiz.,[2],0.20
same,relative amount remaining in therapeutic device 100,[2],about 3.1%
same,relative half-life in device 100,[2],about 20%
same,diffusion coefficient and rate of release through the porous structure relative to Ranibizumab,[2]; faster than Ranibizumab,approx. 5 times
Bevacizumab,Alpha-1 Antitrypsin Post-treatment mean,[3]; [7],0.0025 mg/mL
same,Alpha-Fetoprotein Post-treatment mean,[3]; [7],0.2790 ng/mL
same,Apolipoprotein A1 Post-treatment mean,[3]; [7],0.0004 mg/mL
same,Apolipoprotein CIII Post-treatment mean,[3]; [7],0.0259 µg/mL
same,Apolipoprotein H Post-treatment mean,[3]; [7],0.6400 µg/mL
same,Beta-2 Microglobulin Post-treatment mean,[3]; [7],0.3026 µg/mL
same,C Reactive Protein Post-treatment mean,[3]; [7],0.0477 µg/mL
same,CD40 Post-treatment mean,[3]; [7],0.0510 ng/mL
same,Cancer Antigen 19-9 Post-treatment mean,[3]; [7],0.2042 U/ml
same,Cancer Antigen 125 Post-treatment mean,[3]; [7],1.7225 U/ml
same,Complement 3 Post-treatment mean,[3]; [7],0.0014 mg/mL
same,Endothelin-1 Post-treatment mean,[3]; [7],5.2375 pg/mL
same,Eotaxin Post-treatment mean,[3]; [7],13.5813 pg/mL
same,Erythropoietin Post-treatment mean,[3]; [7],111.6125 pg/mL
same,FGF basic Post-treatment mean,[3]; [7],30.8900 pg/mL
same,Fibrinogen Post-treatment mean,[3]; [7],0.0005 mg/mL
same,G-CSF Post-treatment mean,[3]; [7],3.6748 pg/mL
same,Glutathione S-Transferase Post-treatment mean,[3]; [7],0.1544 ng/mL
same,Haptoglobin Post-treatment mean,[3]; [7],0.0004 mg/mL
same,ICAM-1 Post-treatment mean,[3]; [7],0.6971 ng/mL
same,IGF-1 Post-treatment mean,[3]; [7],1.4285 ng/mL
same,IL-6 Post-treatment mean,[3]; [7],15.2016 pg/mL
same,IL-7 Post-treatment mean,[3]; [7],12.3125 pg/mL
same,IL-8 Post-treatment mean,[3]; [7],14.9900 pg/mL
same,IgA Post-treatment mean,[3]; [7],0.0015 mg/mL
same,IgM Post-treatment mean,[3]; [7],0.0009 mg/mL
same,Leptin Post-treatment mean,[3]; [7],0.2131 ng/mL
same,MCP-1 Post-treatment mean,[3]; [7],438.3750 pg/mL
same,MIP-1alpha Post-treatment mean,[3]; [7],9.4175 pg/mL
same,MIP-1beta Post-treatment mean,[3]; [7],21.7988 pg/mL
same,MMP-3 Post-treatment mean,[3]; [7],0.6159 ng/mL
same,"Prostate Specific Antigen, Free Post-treatment mean",[3]; [7],0.0092 ng/mL
same,Prostatic Acid Phosphatase Post-treatment mean,[3]; [7],0.0095 ng/mL
same,SGOT Post-treatment mean,[3]; [7],1.3488 µg/mL
same,SHBG Post-treatment mean,[3]; [7],0.2250 nmol/L
same,Serum Amyloid P Post-treatment mean,[3]; [7],0.0134 µg/mL
same,Stem Cell Factor Post-treatment mean,[3]; [7],19.4375 pg/mL
same,TIMP-1 Post-treatment mean,[3]; [7],22.3825 ng/mL
same,Thyroxine Binding Globulin Post-treatment mean,[3]; [7],0.3876 µg/mL
same,Tissue Factor Post-treatment mean,[3]; [7],0.3631 ng/mL
same,VEGF Post-treatment mean,[3]; [7],484.1250 pg/mL
same,Alpha-1 Antitrypsin Pre-treatment mean/Post-treatment mean,[3]; [8],0.9
same,Alpha-Fetoprotein Pre-treatment mean/Post-treatment mean,[3]; [8],0.9
same,Apolipoprotein A1 Pre-treatment mean/Post-treatment mean,[3]; [8],1.8
same,Apolipoprotein CIII Pre-treatment mean/Post-treatment mean,[3]; [8],1.6
same,Apolipoprotein H Pre-treatment mean/Post-treatment mean,[3]; [8],1.3
same,Beta-2 Microglobulin Pre-treatment mean/Post-treatment mean,[3]; [8],1.4
same,C Reactive Protein Pre-treatment mean/Post-treatment mean,[3]; [8],2.3
same,CD40 Pre-treatment mean/Post-treatment mean,[3]; [8],1.3
same,Cancer Antigen 19-9 Pre-treatment mean/Post-treatment mean,[3]; [8],1.4
same,Cancer Antigen 125 Pre-treatment mean/Post-treatment mean,[3]; [8],1.0
same,Complement 3 Pre-treatment mean/Post-treatment mean,[3]; [8],0.9
same,Endothelin-1 Pre-treatment mean/Post-treatment mean,[3]; [8],1.0
same,Eotaxin Pre-treatment mean/Post-treatment mean,[3]; [8],1.3
same,Erythropoietin Pre-treatment mean/Post-treatment mean,[3]; [8],1.1
same,FGF basic Pre-treatment mean/Post-treatment mean,[3]; [8],1.7
same,Fibrinogen Pre-treatment mean/Post-treatment mean,[3]; [8],2.2
same,G-CSF Pre-treatment mean/Post-treatment mean,[3]; [8],4.7
same,Glutathione S-Transferase Pre-treatment mean/Post-treatment mean,[3]; [8],0.9
same,Haptoglobin Pre-treatment mean/Post-treatment mean,[3]; [8],1.3
same,ICAM-1 Pre-treatment mean/Post-treatment mean,[3]; [8],1.1
same,IGF-1 Pre-treatment mean/Post-treatment mean,[3]; [8],1.0
same,IL-6 Pre-treatment mean/Post-treatment mean,[3]; [8],7.9
same,IL-7 Pre-treatment mean/Post-treatment mean,[3]; [8],0.9
same,IL-8 Pre-treatment mean/Post-treatment mean,[3]; [8],1.5
same,IgA Pre-treatment mean/Post-treatment mean,[3]; [8],0.9
same,IgM Pre-treatment mean/Post-treatment mean,[3]; [8],1.4
same,Leptin Pre-treatment mean/Post-treatment mean,[3]; [8],1.8
same,MCP-1 Pre-treatment mean/Post-treatment mean,[3]; [8],1.5
same,MIP-1alpha Pre-treatment mean/Post-treatment mean,[3]; [8],1.1
same,MIP-1beta Pre-treatment mean/Post-treatment mean,[3]; [8],1.1
same,MMP-3 Pre-treatment mean/Post-treatment mean,[3]; [8],1.0
same,"Prostate Specific Antigen, Free Pre-treatment mean/Post-treatment mean",[3]; [8],1.8
same,Prostatic Acid Phosphatase Pre-treatment mean/Post-treatment mean,[3]; [8],2.7
same,SGOT Pre-treatment mean/Post-treatment mean,[3]; [8],1.3
same,SHBG Pre-treatment mean/Post-treatment mean,[3]; [8],2.3
same,Serum Amyloid P Pre-treatment mean/Post-treatment mean,[3]; [8],2.1
same,Stem Cell Factor Pre-treatment mean/Post-treatment mean,[3]; [8],1.0
same,TIMP-1 Pre-treatment mean/Post-treatment mean,[3]; [8],1.4
same,Thyroid Stimulating Hormone Pre-treatment mean/Post-treatment mean,[3]; [8],1.6
same,Thyroxine Binding Globulin Pre-treatment mean/Post-treatment mean,[3]; [8],1.6
same,Tissue Factor Pre-treatment mean/Post-treatment mean,[3]; [8],1.0
same,VEGF Pre-treatment mean/Post-treatment mean,[3]; [8],1.4
same,Device Half-life relative to Ranibiz.,[2],1.46
Polysorbate 20,Diff Coeff,[1],3.4E−06 cm^2/s
same,Diff Coeff,[1]; listed as polysorbate 20,~3.4E-6 cm^2/s
same,Equiv volume,[1],2.0 nm^3
same,equivalent diameter,[1],~1.6 nm
same,D/(Ran D),[1],3.39
same,relative half-life in device 100,[2],about 29%
same,relative amount remaining in therapeutic device 100,[2]; at the half-life of ranibizumab,about 9.5%
Ranibizumab,half-life,[4],approximately 3 days
same,half-life,[5],approximately 3 days
same,Device Half-life relative to Ranibiz.,[2],1.00
same,half-life,[6],220 h

# — patent US10398592B2, “Diagnostic methods and apparatus” (ForSight Vision4, Inc., priority 2011, dated 2019)
